Test results from the NIST ThermoML archive (doi:10.1016/j.jct.2014.05.015).
Numbers after ± are expanded uncertainties.

How the values were obtained:
[1] = mn = molality of the nth substance listed, in mol/kg; settings: 100 kPa, Liquid; for speed of sound: Frequency=3 MHz, Sing-around technique in a fixed-path interferometer; for mass density: Vibrating tube method
[2] = 100 kPa, Liquid

Q: For `O=C[C@H](O)[C@@H](O)[C@H](O)[C@H](O)CO` [D-glucose] + O, which speed of sound ([1]; 293.15 K, m1 = 0.1) is on record?
A: 1489.2 ± 1.6 m/s

Q: And the speed of sound ([1]; 293.15 K, m1 = 0.2)?
A: 1496 ± 1.6 m/s

Q: What about the speed of sound ([1]; 293.15 K, m1 = 0.3) of the same compound?
A: 1502.5 ± 1.6 m/s

Q: And the mass density ([1]; 293.15 K, m1 = 0.1)?
A: 1005.07 ± 0.26 kg/m3

Q: What about the mass density ([1]; 293.15 K, m1 = 0.2) of the same compound?
A: 1012.08 ± 0.27 kg/m3

Q: And the mass density ([1]; 293.15 K, m1 = 0.3)?
A: 1018.81 ± 0.27 kg/m3

Q: What about the speed of sound ([1]; 298.15 K, m1 = 0.1) of the same compound?
A: 1502.9 ± 1.6 m/s

Q: What about the speed of sound ([1]; 298.15 K, m1 = 0.2) of the same compound?
A: 1509.4 ± 1.6 m/s

Q: What about the speed of sound ([1]; 298.15 K, m1 = 0.3) of the same compound?
A: 1515.8 ± 1.6 m/s

Q: And the mass density ([1]; 298.15 K, m1 = 0.1)?
A: 1003.87 ± 0.26 kg/m3

Q: And the mass density ([1]; 298.15 K, m1 = 0.2)?
A: 1010.89 ± 0.27 kg/m3

Q: What about the mass density ([1]; 298.15 K, m1 = 0.3) of the same compound?
A: 1017.52 ± 0.27 kg/m3

Q: And the speed of sound ([1]; 303.15 K, m1 = 0.1)?
A: 1514.8 ± 1.6 m/s

Q: And the speed of sound ([1]; 303.15 K, m1 = 0.2)?
A: 1521.2 ± 1.6 m/s

Q: And the speed of sound ([1]; 303.15 K, m1 = 0.3)?
A: 1527.3 ± 1.6 m/s

Q: What about the mass density ([1]; 303.15 K, m1 = 0.1) of the same compound?
A: 1002.44 ± 0.26 kg/m3

Q: What about the mass density ([1]; 303.15 K, m1 = 0.3) of the same compound?
A: 1016.01 ± 0.27 kg/m3

Q: What about the speed of sound ([1]; 308.15 K, m1 = 0.1) of the same compound?
A: 1525.3 ± 1.6 m/s

Q: And the speed of sound ([1]; 308.15 K, m1 = 0.2)?
A: 1531.2 ± 1.6 m/s

Q: What about the speed of sound ([1]; 308.15 K, m1 = 0.3) of the same compound?
A: 1537.2 ± 1.6 m/s

Q: What about the mass density ([1]; 308.15 K, m1 = 0.1) of the same compound?
A: 1000.79 ± 0.26 kg/m3

Q: And the mass density ([1]; 308.15 K, m1 = 0.3)?
A: 1014.29 ± 0.27 kg/m3

Q: And the speed of sound ([1]; 313.15 K, m1 = 0.1)?
A: 1534.1 ± 1.6 m/s

Q: What about the speed of sound ([1]; 313.15 K, m1 = 0.2) of the same compound?
A: 1539.8 ± 1.6 m/s

Q: And the speed of sound ([1]; 313.15 K, m1 = 0.3)?
A: 1545.7 ± 1.6 m/s

Q: What about the mass density ([1]; 313.15 K, m1 = 0.1) of the same compound?
A: 998.945 ± 0.26 kg/m3

Q: And the mass density ([1]; 313.15 K, m1 = 0.2)?
A: 1005.86 ± 0.26 kg/m3

Q: What about the mass density ([1]; 313.15 K, m1 = 0.3) of the same compound?
A: 1012.36 ± 0.27 kg/m3

Q: With `OC[C@H]1O[C@@](CO)(O[C@H]2O[C@H](CO)[C@@H](O)[C@H](O)[C@H]2O)[C@@H](O)[C@@H]1O` [D-sucrose] + O as the compound, how does the speed of sound ([1]; 293.15 K, m1 = 0.1) read?
A: 1492.3 ± 1.3 m/s

Q: What about the speed of sound ([1]; 293.15 K, m1 = 0.2) of the same compound?
A: 1502.4 ± 1.3 m/s

Q: What about the speed of sound ([1]; 293.15 K, m1 = 0.3) of the same compound?
A: 1512.9 ± 1.3 m/s

Q: What about the mass density ([1]; 293.15 K, m1 = 0.1) of the same compound?
A: 1011.49 ± 0.14 kg/m3

Q: What about the mass density ([1]; 293.15 K, m1 = 0.2) of the same compound?
A: 1024.67 ± 0.14 kg/m3

Q: What about the mass density ([1]; 293.15 K, m1 = 0.3) of the same compound?
A: 1037.84 ± 0.14 kg/m3

Q: And the speed of sound ([1]; 298.15 K, m1 = 0.1)?
A: 1505.9 ± 1.3 m/s

Q: And the speed of sound ([1]; 298.15 K, m1 = 0.2)?
A: 1515.7 ± 1.3 m/s

Q: And the speed of sound ([1]; 298.15 K, m1 = 0.3)?
A: 1525.7 ± 1.3 m/s

Q: What about the mass density ([1]; 298.15 K, m1 = 0.1) of the same compound?
A: 1010.26 ± 0.14 kg/m3

Q: What about the mass density ([1]; 298.15 K, m1 = 0.2) of the same compound?
A: 1023.37 ± 0.14 kg/m3

Q: And the mass density ([1]; 298.15 K, m1 = 0.3)?
A: 1036.47 ± 0.14 kg/m3

Q: What about the speed of sound ([1]; 303.15 K, m1 = 0.1) of the same compound?
A: 1517.8 ± 1.3 m/s

Q: What about the speed of sound ([1]; 303.15 K, m1 = 0.2) of the same compound?
A: 1527 ± 1.3 m/s

Q: What about the speed of sound ([1]; 303.15 K, m1 = 0.3) of the same compound?
A: 1536.8 ± 1.3 m/s

Q: And the mass density ([1]; 303.15 K, m1 = 0.1)?
A: 1008.81 ± 0.14 kg/m3

Q: What about the mass density ([1]; 303.15 K, m1 = 0.2) of the same compound?
A: 1021.85 ± 0.14 kg/m3

Q: What about the mass density ([1]; 303.15 K, m1 = 0.3) of the same compound?
A: 1034.89 ± 0.14 kg/m3

Q: What about the speed of sound ([1]; 308.15 K, m1 = 0.1) of the same compound?
A: 1528.1 ± 1.3 m/s

Q: What about the speed of sound ([1]; 308.15 K, m1 = 0.2) of the same compound?
A: 1536.9 ± 1.3 m/s

Q: What about the speed of sound ([1]; 308.15 K, m1 = 0.3) of the same compound?
A: 1546.3 ± 1.3 m/s

Q: And the mass density ([1]; 308.15 K, m1 = 0.1)?
A: 1007.14 ± 0.13 kg/m3

Q: What about the mass density ([1]; 308.15 K, m1 = 0.2) of the same compound?
A: 1020.13 ± 0.14 kg/m3

Q: What about the mass density ([1]; 308.15 K, m1 = 0.3) of the same compound?
A: 1033.11 ± 0.14 kg/m3

Q: What about the speed of sound ([1]; 313.15 K, m1 = 0.1) of the same compound?
A: 1536.7 ± 1.3 m/s

Q: What about the speed of sound ([1]; 313.15 K, m1 = 0.2) of the same compound?
A: 1545.4 ± 1.3 m/s

Q: And the speed of sound ([1]; 313.15 K, m1 = 0.3)?
A: 1554.2 ± 1.4 m/s

Q: And the mass density ([1]; 313.15 K, m1 = 0.1)?
A: 1005.28 ± 0.13 kg/m3

Q: What about the mass density ([1]; 313.15 K, m1 = 0.2) of the same compound?
A: 1018.22 ± 0.14 kg/m3

Q: And the mass density ([1]; 313.15 K, m1 = 0.3)?
A: 1031.16 ± 0.14 kg/m3

Q: Which results are given for `O` [water]?
A: mass density ([2]; 308.15 K, Vibrating tube method): 994.061 ± 0.26 kg/m3; speed of sound ([2]; 313.15 K, Frequency=3 MHz, Sing-around technique in a fixed-path interferometer): 1528.8 ± 1.6 m/s
